According to patent publication US20250295790A1, “LECTIN-TARGETING CONJUGATES” (Helmholtz-Zentrum für Infektionsforschung GmbH, priority 2021, published 2025):
Values after ≈ are worked out from the molar mass of the structure shown. “Also recorded” adds a separate entry of the source. Like-named read-outs stand apart in the source and are kept apart here.

How the values were obtained:
LecA [1] = molecular target: T1, LecA (Pseudomonas aeruginosa, UniProt Q05097); experiment: Competitive binding assay based on fluorescence polarization with LecA
T1 construct: made in house
T1 sequence (Q05097 whole entry): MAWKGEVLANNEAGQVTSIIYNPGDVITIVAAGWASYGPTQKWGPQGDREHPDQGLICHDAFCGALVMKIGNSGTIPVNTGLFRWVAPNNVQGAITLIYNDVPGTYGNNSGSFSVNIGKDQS
Protocol: LecA (according to Joachim et al.): A serial dilution of the test compounds was prepared in TBS/Ca (8.0 g/L NaCl, 2.4 g/L Tris, 0.19 g/L KCl, 0.15 g/L CaCl2·2 H2O), with 30% DMSO as co-solvent. […] The measured intensities were reduced by the values of only LecA in TBS/Ca and fluorescence polarization was calculated. The data was analysed with the MARS Data Analysis Software (BMG Labtech GmbH, Germany) and fitted according to the four-parameter variable slope model. Bottom and top plateaus were fixed according to the control compounds in each assay ((p-nitrophenyl)-p-D-galactoside) and the data was re-analysed with these values fixed. A minimum of three independent measurements on three plates was performed for each inhibitor.
Averages and standard deviations were calculated from at least three independent experiments.

[2] = Prodrug activation assay in human blood plasma spiked with P. aeruginosa PA14 culture supernatant; assay type: in vitro ADME, Pseudomonas aeruginosa PA14; conditions: 50% human blood plasma spiked with 10% P. aeruginosa culture supernatant, within 3 h
Protocol: In the prodrug activation assay, the bacterial strain Pseudomonas aeruginosa PA14 wt (DSM 19882) was used. The strain was obtained from the German Collection of Microorganisms and Cell Cultures (DSMZ).
(§1) P. aeruginosa PA14 was streaked on LB-agar plates (1% agar) from glycerol stocks and incubated at 37° C. overnight. 2-5 colonies were picked and dispersed in 10 mL LB (10 g/L trypton, 10 g/L NaCl, 5 g/L yeast extracts). This dispersion was incubated overnight at 37° C., 180 rpm under high humidity. The culture was centrifuged (4000 ref, room temperature, 10 min) and the supernatant was filtered (0.22 m pore size). […]
(§2) A 1 mM solution of the studied compound was prepared in PBS (150 mM NaCl, 2.6 mM KCl, 1.4 mM KH2PO4, 10 mM Na2HPO4, pH 7.4) with 20% DMSO. 50 μL of this solution was diluted in 950 μL matrix or human plasma (spiked with 10% LB) on ice. After brief vortex, 100 μL were immediately treated with 100 μL ice-cold MeCN (spiked with […] diphenhydramine as internal standard). The rest of the solution was incubated at 37° C. and 500 rpm in an eppendorf thermomixer. At various time points (30, 60, 120, 180 min), 100 L sample were taken and treated as described above. […] The AUC of the parent drug and its cleavage products and the internal standard was quantified using Compass QuantAnalysis quantification software. The relative AUC was calculated by AUC (compound)/AUC(ISTD). Procaine was used as a positive control as it readily degrades in human plasma.

[3] = Stability of conjugates in human blood plasma spiked with LB; assay type: in vitro ADME; conditions: 50% human blood plasma spiked with 10% LB, within three hours
Protocol: as §2

P. aeruginosa PA14 = experiment: Antibiotic susceptibility (MIC assay, broth microdilution); assay type: cell-based, Pseudomonas aeruginosa PA14
Protocol: Bacterial strains were streaked on LB-agar plates (1% agar) from glycerol stocks and incubated at 37° C. overnight. Colonies were picked from plate and dispersed in fresh MiGler-Hinton broth II (MHB II) to yield an OD600 of 0.08-0.13. This dispersion was diluted 1:100 in fresh MHB II, which was then used for the assay to achieve a final inoculum of 5×10^5 CFU/mL. 50 μL inoculum was mixed with 50 μL of the serial dilution in the corresponding well of the 96-well plate.
The different matrices were prepared under sterile conditions: (i) 5 mL human plasma and 1 mL sterile filtrate from an P. aeruginosa PA14 overnight culture in LB were mixed with 4 mL PBS; (ii) 1 mL sterile filtrate from an P. aeruginosa PA14 overnight culture was diluted in 9 mL PBS; (iii) PBS only and (iv) 5 mL human plasma and 1 mL LB were mixed with 4 mL PBS. 6 L of each compound dilution series was diluted in 115 L matrix (˜-1:20 dilution) in a 96-well format at time point T=−3 h or T=−10 min.
The plates prepared at T=−3 h were sealed with gas-permeable foil and incubated at 37° C. in a humid incubator. The other plates were kept at room temperature. At T=0 h, 50 µL of each well was mixed with 50 μL incoculum (as described above) in double-concentrated MHBII in a sterile 96-well plate.
The plates were sealed with gas-permeable foil and incubated at 37° C. for 18-20 h in a humid incubator. Growth inhibition was assessed by visual inspection and given MIC values are the lowest concentration of antibiotic at which there was no visible growth.

[4] = Cleavage / stability in PA14-filtrate without human blood plasma; assay type: in vitro ADME, Pseudomonas aeruginosa PA14; conditions: up to 24 h
Protocol: as §1, §2

LecB PAO1 = LecB PAO1 (Pseudomonas aeruginosa, UniProt Q9HYN5); assay type: binding; conditions: target LecB PAO1; for Ki: calculated as Ki from IC50, read-out: Ki ± s.d.
Chain of LecB PAO1 (Q9HYN5 entry or part of it): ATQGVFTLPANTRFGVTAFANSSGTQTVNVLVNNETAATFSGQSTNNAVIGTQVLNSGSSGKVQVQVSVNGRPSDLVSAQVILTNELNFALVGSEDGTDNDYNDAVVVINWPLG
Protocol: LecB (LecB PAO1 according to Hauck et al. and LecB PA14 according to Sommer et al.): A serial dilution of the test compounds was prepared in TBS/Ca, with 20% DMSO as cosolvent. […] Fluorescence was measured and analysed as for LecA. Bottom and top plateaus were fixed according to the control compound in each assay (1-fucose) and the data was re-analysed with these values fixed. A minimum of three independent measurements on three plates was performed for each inhibitor.

LecB PA14 = LecB PA14 (Pseudomonas aeruginosa, UniProt A0A0H2ZE85); assay type: binding; conditions: target LecB PA14
Chain of LecB PA14 (A0A0H2ZE85 entry or part of it): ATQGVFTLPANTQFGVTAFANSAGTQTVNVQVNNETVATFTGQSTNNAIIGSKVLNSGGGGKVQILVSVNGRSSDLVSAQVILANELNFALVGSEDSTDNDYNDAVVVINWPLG
Protocol: LecB (LecB PAO1 according to Hauck et al. and LecB PA14 according to Sommer et al.): A serial dilution of the test compounds was prepared in TBS/Ca, with 20% DMSO as cosolvent. A concentrated solution of LecB PAO1 or PA14 was diluted in TBS/Ca together with the fluorescent reporter ligand (N-(fluorescein-5-yl)-N′-(α-l-fucopyranosyl ethylen)-thiocarbamide) to yield concentrations of 300 nM and 20 nM, respectively. 10 μL of this mix was added to 10 μL serial dilutions of the test compounds in a black 384-well microtiter plates (Greiner Bio-One, Germany, cat. no. 781900) in triplicates. After centrifugation (2680 ref, 1 min, room temperature), the reactions were incubated for 4-8 h at room temperature in a humidity chamber. Fluorescence was measured and analysed as for LecA. Bottom and top plateaus were fixed according to the control compound in each assay (1-fucose) and the data was re-analysed with these values fixed. A minimum of three independent measurements on three plates was performed for each inhibitor.

LecA [5] = molecular target: T1, LecA; experiment: Isothermal titration calorimetry with LecA; assay type: binding
Protocol: Isothermal titration calorimetry was performed on an iTC200 (Malvern Panalytical) and the data were analyzed using Microcal Origin software (Malvern Panalytical). LecA in the cell was titrated with ligand in TBS/Ca^2+ buffer supplemented with 5% DMSO at 25° C. Steep titration slopes were the result of high amount of protein present and the high binding affinity of the ligand (high ‘value of c’).
Isothermal titration calorimetry was performed on an iTC200 (Malvern Panalytical) and the data were analyzed using Microcal Origin software (Malvern Panalytical).

[6] = target LecA, calculated as Ki from IC50, read-out: Ki ± s.d.
[7] = target LecA, read-out: IC50 ± s.d.
[8] = Matrix 1: PBS, pre-incubation 3 h
[9] = Matrix 1: PBS, pre-incubation <10 min
[10] = Matrix 2: 50% human blood plasma + 10% P. aeruginosa culture supernatant in PBS, pre-incubation 3 h
[11] = Matrix 3: 10% P. aeruginosa culture supernatant in PBS, pre-incubation 3 h
[12] = Matrix 3: 10% P. aeruginosa culture supernatant in PBS, pre-incubation <10 min
[13] = Matrix 4: 50% human blood plasma + 10% LB in PBS, pre-incubation 3 h
[14] = Matrix 4: 50% human blood plasma + 10% LB in PBS, pre-incubation <10 min
[15] = Matrix 2: 50% human blood plasma + 10% P. aeruginosa culture supernatant in PBS, pre-incubation <10 min

Compound | release of antibiotic cargo [2] | release of antibiotic cargo [3] | MIC (P. aeruginosa PA14; [8]) [µM] | MIC (P. aeruginosa PA14; [9]) [µM] | MIC (P. aeruginosa PA14; [10]) [µM] | MIC (P. aeruginosa PA14; [11]) [µM] | MIC (P. aeruginosa PA14; [12]) [µM] | MIC (P. aeruginosa PA14; [13]) [µM] | MIC (P. aeruginosa PA14; [14]) [µM] | MIC (P. aeruginosa PA14; [15]) [µM] | other results
CC(C)C[C@H](NC(=O)CNC(=O)[C@H](C)NC(=O)c1ccc(S[C@@H]2O[C@H](CO)[C@H](O)[C@H](O)[C@H]2O)cc1)C(=O)N[C@@H](C)C(=O)N1CCN(c2cc3c(cc2F)c(=O)c(C(=O)O)cn3C2CC2)CC1 [Compound 24] | do not release ciprofloxacin; also recorded: degradation stopped at the stage of the secondary amide Ala-ciprofloxacin | no significant release of their antibiotic cargo | >25 | >25 | ≥25 | ≥25 | ≥25 | ≥25 | ≥25 |  | Ki (LecA [1]; [6]): 12.9 ± 1.12 µM; IC50 (LecA [1]; [7]): 31.7 ± 2.46 µM
CC(C)CC(NC(=O)CNC(=O)C(C)NC(=O)c1ccc(SC2OC(CO)C(O)C(O)C2O)cc1)C(=O)NC(C)C(=O)NCC1CCN(c2cc3c(cc2F)c(=O)c(C(=O)O)cn3C2CC2)C1 (stereo not shown) [Compound 48] | release their antibiotic cargo; also recorded: released a significant amount of their antibiotic cargo; also recorded: efficiently released their antibiotic cargo | no significant release of their antibiotic cargo | >25 | >25 | 1.56 | 1.56 to 3.13 | 1.56 to 3.13 |  | >25 | 3.13 to 12.5 | Ki (LecA [1]; [6]): 11.2 ± 0.73 µM; IC50 (LecA [1]; [7]): 28 ± 1.61 µM
CC(C)C[C@H](N)C(=O)N[C@@H](C)C(=O)N1CCN(c2cc3c(cc2F)c(=O)c(C(=O)O)cn3C2CC2)CC1 [Compound 19, Leu-Ala-ciprofloxacin-conjugate] |  |  |  |  |  |  |  |  |  |  | release of free drug from dipeptide-conjugates [4]: very slow; also recorded: only slowly released their antibiotic cargo
NC[C@@H]1CCN(c2nc3c(cc2F)c(=O)c(C(=O)O)cn3C2CC2)C1 [Compound 3, (S)-7-(3-(aminomethyl)-1-pyrrolidinyl)-1-cyclopropyl-6-fluoro-1,4-dihydro-4-oxo-1,8-naphthyridine-3-carboxylic acid, reference compound] |  |  |  |  |  |  |  |  |  |  | MIC (P. aeruginosa PA14; Pseudomonas aeruginosa, PA14, read-out: MIC (parent drug)): 0.29 to 1.45 µM (≈ 0.1 to 0.502 µg/mL)
CC(C)C[C@H](NC(=O)CNC(=O)[C@H](C)NC(=O)c1ccc(S(=O)(=O)NC[C@H]2O[C@@H](C)[C@@H](O)[C@@H](O)[C@@H]2O)cc1)C(=O)N[C@@H](C)C(=O)N1CCN(c2cc3c(cc2F)c(=O)c(C(=O)O)cn3C2CC2)CC1 [Compound 25] | do not release ciprofloxacin; also recorded: degradation stopped at the stage of the secondary amide Ala-ciprofloxacin | no significant release of their antibiotic cargo | >25 | >25 | ≥25 | ≥25 | ≥25 | ≥25 | ≥25 |  | IC50 (LecB PAO1): 4.63 ± 1.99 µM; IC50 ± s.d. (LecB PAO1): one-digit micromolar range; Ki (LecB PAO1): 1920 ± 930 nM; IC50 (LecB PA14): 1000 ± 320 nM; Ki (LecB PA14; calculated as Ki from IC50, read-out: Ki ± s.d.): 360 ± 120 nM
O=C(O)c1cn(C2CC2)c2cc(N3CCNCC3)c(F)cc2c1=O [Compound 1, Ciprofloxacin, reference compound] |  |  |  |  | 0.156 to 0.25 |  |  | 0.156 to 0.313 | 0.156 to 0.313 | 0.25 to 0.313 | 
CC(C)CC(NC(=O)CNC(=O)C(C)NC(=O)c1ccc(S(=O)(=O)NCC2OC(C)C(O)C(O)C2O)cc1)C(=O)NC(C)C(=O)NCC1CCN(c2cc3c(cc2F)c(=O)c(C(=O)O)cn3C2CC2)C1 (stereo not shown) [Compound 49] | release their antibiotic cargo; also recorded: released a significant amount of their antibiotic cargo; also recorded: efficiently released their antibiotic cargo | no significant release of their antibiotic cargo | >25 | >25 | 1.56 to 3.13 | 1.56 to 6.25 | 3.13 to 6.25 |  | ≥25 | 3.13 to 6.25 | IC50 (LecB PAO1): 4.29 ± 2.99 µM; IC50 ± s.d. (LecB PAO1): one-digit micromolar range; Ki (LecB PAO1): 1750 ± 1400 nM; MIC (P. aeruginosa PA14; Matrix 3, <10 min pre-incubation (text b309)): 3.13 µM (≈ 3.13 µg/mL)
O=[N+]([O-])c1ccc(S[C@@H]2O[C@H](CO)[C@H](O)[C@H](O)[C@H]2O)cc1 [pNP-β-D-Gal, p-nitrophenyl-β-thio-galactoside, reference compound] |  |  |  |  |  |  |  |  |  |  | IC50 (LecA [1]): 61.9 ± 0.6 µM; Ki (LecA [1]): 26.9 ± 0.25 µM
CC(C)C[C@H](NC(=O)CNC(=O)[C@H](C)NC(=O)CCCCCn1cc(CCN(Cc2ccc(NC(=O)CCc3ccc(O[C@@H]4OC(CO)[C@H](O)C(O)C4O)cc3)cc2)Cc2ccc(NC(=O)CCc3ccc(O[C@@H]4OC(CO)[C@H](O)C(O)C4O)cc3)cc2)nn1)C(=O)N[C@@H](C)C(=O)N[C@H]1CCN(c2cc3c(cc2F)c(=O)c(C(=O)O)cn3C2CC2)C1 (stereo partly shown) [Compound 68] |  |  |  |  |  |  |  |  |  |  | Kd (LecA [5]): 36 ± 48 nM
